For 21 compounds, IC50 results are on record in ChEMBL document CHEMBL3797179, “Probing for improved selectivity with dipeptide-derived inhibitors of dipeptidyl peptidases 8 and 9: the impact of P1-variation” (Medchemcomm, 2016).

One experiment has as its target T1, Prolyl endopeptidase FAP (Mus musculus, UniProt P97321).
T1 sequence (P97321 whole entry): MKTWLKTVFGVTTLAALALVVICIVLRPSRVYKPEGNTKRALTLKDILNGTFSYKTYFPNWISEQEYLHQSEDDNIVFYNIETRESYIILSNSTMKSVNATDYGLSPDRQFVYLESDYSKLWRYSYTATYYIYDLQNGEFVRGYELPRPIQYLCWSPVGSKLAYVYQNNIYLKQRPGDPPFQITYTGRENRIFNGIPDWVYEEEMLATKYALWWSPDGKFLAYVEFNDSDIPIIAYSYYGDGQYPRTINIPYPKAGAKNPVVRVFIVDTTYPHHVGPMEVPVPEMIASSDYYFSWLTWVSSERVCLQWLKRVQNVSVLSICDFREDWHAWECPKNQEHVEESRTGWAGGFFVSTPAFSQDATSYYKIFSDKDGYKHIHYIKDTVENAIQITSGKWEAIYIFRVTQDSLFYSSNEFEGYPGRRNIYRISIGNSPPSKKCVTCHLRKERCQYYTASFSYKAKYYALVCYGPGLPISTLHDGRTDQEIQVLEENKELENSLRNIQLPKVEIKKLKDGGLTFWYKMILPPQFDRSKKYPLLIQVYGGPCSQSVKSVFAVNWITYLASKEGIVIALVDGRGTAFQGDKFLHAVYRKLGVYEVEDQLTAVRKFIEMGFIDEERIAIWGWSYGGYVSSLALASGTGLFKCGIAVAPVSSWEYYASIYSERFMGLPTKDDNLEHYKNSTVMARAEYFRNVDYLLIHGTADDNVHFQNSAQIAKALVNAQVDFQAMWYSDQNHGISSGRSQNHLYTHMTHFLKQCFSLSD
The experiment is described as follows: Inhibition of BALB/c mouse 5'-His6-tagged 3'-FLAG-tagged FAP fused with ECD expressed in HEK293 cells using Ala-Pro-p-nitroanilide as substrate preincubated for 15 mins followed by substrate addition measured for 10 mins by […]. Format: cell-based.

The nature of experiment [1]: Inhibition of bovine testes DPP9 using Ala-Pro-p-nitroanilide as substrate preincubated for 15 mins followed by substrate addition measured for 10 mins by […]. More on the design: species or system Bos taurus.
The target in the next experiment is Dipeptidyl peptidase 2 (Homo sapiens, UniProt Q9UHL4). The experiment is described as follows: Inhibition of DPP2 in human seminal plasma using Lys-Ala-p-nitroanilide as substrate preincubated for 15 mins followed by substrate addition measured for 10 mins by […]. Format: cell-free.
In another experiment the target is Dipeptidyl peptidase 8 (Homo sapiens, UniProt Q6V1X1). Put plainly: Inhibition of full length human DPP8 expressed in baculovirus infected sf9 cells using Ala-Pro-p-nitroanilide as substrate preincubated for 15 mins followed by substrate addition measured for 10 mins by […].
Dipeptidyl peptidase 8, sequence (Q6V1X1 whole entry): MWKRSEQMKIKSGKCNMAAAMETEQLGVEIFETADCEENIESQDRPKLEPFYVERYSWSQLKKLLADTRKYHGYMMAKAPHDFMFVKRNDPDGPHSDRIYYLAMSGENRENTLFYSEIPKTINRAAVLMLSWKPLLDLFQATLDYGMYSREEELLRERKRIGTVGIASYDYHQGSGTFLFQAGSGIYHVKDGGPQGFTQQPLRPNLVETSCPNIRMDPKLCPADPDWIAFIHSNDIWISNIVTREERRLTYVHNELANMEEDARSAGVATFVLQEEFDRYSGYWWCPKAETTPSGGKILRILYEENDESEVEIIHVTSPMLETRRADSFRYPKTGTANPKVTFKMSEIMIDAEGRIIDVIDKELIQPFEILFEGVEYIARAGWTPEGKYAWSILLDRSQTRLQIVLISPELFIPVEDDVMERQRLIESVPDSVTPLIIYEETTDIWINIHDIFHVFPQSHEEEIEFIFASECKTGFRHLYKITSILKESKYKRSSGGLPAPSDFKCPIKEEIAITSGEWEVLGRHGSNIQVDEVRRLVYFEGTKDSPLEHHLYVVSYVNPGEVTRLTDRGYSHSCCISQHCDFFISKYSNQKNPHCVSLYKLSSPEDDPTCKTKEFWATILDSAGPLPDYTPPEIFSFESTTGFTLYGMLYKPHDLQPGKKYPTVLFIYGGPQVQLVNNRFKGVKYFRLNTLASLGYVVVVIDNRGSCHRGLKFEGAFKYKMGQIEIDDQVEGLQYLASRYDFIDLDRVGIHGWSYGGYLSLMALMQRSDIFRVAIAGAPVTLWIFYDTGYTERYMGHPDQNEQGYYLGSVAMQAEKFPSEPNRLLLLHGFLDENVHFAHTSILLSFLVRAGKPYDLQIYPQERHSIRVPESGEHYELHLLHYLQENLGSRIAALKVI
The next experiment concerns the target Dipeptidyl peptidase 4 (Homo sapiens, UniProt P27487). The experiment is described as follows: Inhibition of DPP4 in human seminal plasma using Gly-Pro-p-nitroanilide as substrate preincubated for 15 mins followed by substrate addition measured for 10 mins by […]. Format: cell-free.

Dipeptidyl peptidase 4, sequence (P27487 whole entry): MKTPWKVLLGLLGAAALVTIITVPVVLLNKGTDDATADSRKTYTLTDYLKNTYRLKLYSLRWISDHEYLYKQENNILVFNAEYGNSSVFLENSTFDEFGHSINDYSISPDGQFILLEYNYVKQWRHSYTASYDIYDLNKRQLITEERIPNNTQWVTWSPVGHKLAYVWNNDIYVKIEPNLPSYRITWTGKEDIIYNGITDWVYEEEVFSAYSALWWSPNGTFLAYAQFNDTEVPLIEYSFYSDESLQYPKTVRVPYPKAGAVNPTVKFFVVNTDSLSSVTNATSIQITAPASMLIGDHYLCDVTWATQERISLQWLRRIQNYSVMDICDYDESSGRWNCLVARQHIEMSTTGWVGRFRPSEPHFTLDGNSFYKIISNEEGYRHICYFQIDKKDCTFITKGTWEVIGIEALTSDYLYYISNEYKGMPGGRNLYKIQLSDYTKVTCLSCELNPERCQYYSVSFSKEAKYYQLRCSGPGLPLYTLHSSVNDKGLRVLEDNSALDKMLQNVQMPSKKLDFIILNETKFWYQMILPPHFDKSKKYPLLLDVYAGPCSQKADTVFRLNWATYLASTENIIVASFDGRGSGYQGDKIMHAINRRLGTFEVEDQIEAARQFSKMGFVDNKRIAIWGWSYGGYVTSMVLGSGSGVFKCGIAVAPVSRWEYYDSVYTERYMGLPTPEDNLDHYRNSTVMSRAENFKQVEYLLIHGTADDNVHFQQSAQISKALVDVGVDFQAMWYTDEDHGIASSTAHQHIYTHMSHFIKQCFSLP

Consider `N[C@@H](CC(=O)N1CCN(C(c2ccc(F)cc2)c2ccc(F)cc2)CC1)C(=O)N1Cc2ccccc2C1`, for which the concentration for half-maximal inhibition (IC50) at Prolyl endopeptidase FAP was > 100 µM; in experiment [1], 0.084 µM.

With `N#C[C@@H]1[C@@H]2C[C@@H]2CN1C(=O)[C@@H](N)CC(=O)N1CCN(C(c2ccc(F)cc2)c2ccc(F)cc2)CC1`, the IC50 in experiment [1] came to 0.0218 µM.

Regarding `Cc1nc2c(s1)CN(C(=O)[C@@H](N)CC(=O)N1CCN(C(c3ccc(F)cc3)c3ccc(F)cc3)CC1)C2`, the IC50 in experiment [1] is 30 µM; at Dipeptidyl peptidase 2, > 100 µM.

Consider `CCC1CCN(C(=O)[C@@H](N)CC(=O)N2CCN(C(c3ccc(F)cc3)c3ccc(F)cc3)CC2)C1` (stereo partly specified), for which the IC50 on Prolyl endopeptidase FAP is > 100 µM; in experiment [1], 0.36 µM.

With `CCC1CCN(C(=O)[C@@H](N)[C@H](C)CC)C1` (stereo partly specified), the IC50 in experiment [1] turned out to be 5.7 µM.

On to `N#C[C@@H]1C[C@H](N=[N+]=[N-])CN1C(=O)[C@@H](N)CC(=O)N1CCN(C(c2ccc(F)cc2)c2ccc(F)cc2)CC1`, for which the IC50 is 0.23 µM in experiment [1] and > 25 µM against Dipeptidyl peptidase 2.

For `CC[C@@H](C)[C@H](N)C(=O)N1Cc2nc(C)sc2C1`, the IC50 is > 100 µM in experiment [1], > 100 µM on Dipeptidyl peptidase 2 and > 25 µM on Dipeptidyl peptidase 8.

As to `C=C1C[C@@H](C#N)N(C(=O)[C@@H](N)CC(=O)N2CCN(C(c3ccc(F)cc3)c3ccc(F)cc3)CC2)C1`, in experiment [1], the IC50 is 0.083 µM.

In turn, `N[C@@H](CC(=O)N1CCN(C(c2ccc(F)cc2)c2ccc(F)cc2)CC1)C(=O)N1Cc2conc2C1` came in with a concentration for half-maximal inhibition (IC50) in experiment [1] of 2.4 µM. Compared with the last compound, the IC50 is about 29-fold higher.

Compound `C[C@H]1C[C@@H](C#N)N(C(=O)[C@@H](N)CC(=O)N2CCN(C(c3ccc(F)cc3)c3ccc(F)cc3)CC2)C1` came in with an IC50 in experiment [1] of 0.012 µM.

Consider `N[C@@H](CC(=O)N1CCN(C(c2ccc(F)cc2)c2ccc(F)cc2)CC1)C(=O)N1CCC(C(F)(F)F)C1` (stereo partly specified), for which the half-maximal inhibitory concentration (IC50) in experiment [1] is 3.5 µM. Compared with the last compound, the IC50 is about 290-fold higher.

In turn, `CC[C@@H](C)[C@H](N)C(=O)N1CCC(C)C1` (stereo partly specified) gave a 50% inhibitory concentration (IC50) in experiment [1] of 4.7 µM. The IC50 values of the last two compounds are within 1.5-fold of each other.

As for `C=C1CCN(C(=O)[C@@H](N)[C@H](C)CC)C1`, the half-inhibitory concentration (IC50) in experiment [1] was 16 µM; at Dipeptidyl peptidase 2, > 100 µM; against Dipeptidyl peptidase 4 it was > 50 µM.

As for `CC[C@@H](C)[C@H](N)C(=O)N1C[C@H]2C[C@H]2[C@H]1C#N`, the values for the concentration for half-maximal inhibition (IC50) (in experiment [1]; at Dipeptidyl peptidase 2) were 2.84 µM and > 100 µM, respectively.

Take `CC1CCN(C(=O)[C@@H](N)CC(=O)N2CCN(C(c3ccc(F)cc3)c3ccc(F)cc3)CC2)C1` (stereo partly specified): the 50% inhibitory concentration (IC50) was > 100 µM against Prolyl endopeptidase FAP and 0.17 µM in experiment [1].

With `C=C1CCN(C(=O)[C@@H](N)CC(=O)N2CCN(C(c3ccc(F)cc3)c3ccc(F)cc3)CC2)C1`, the IC50 in experiment [1] was 0.41 µM; against Dipeptidyl peptidase 2 it was > 100 µM.

Consider `CC[C@@H](C)[C@H](N)C(=O)N1Cc2cn[nH]c2C1`, for which the IC50 (in experiment [1]; against Dipeptidyl peptidase 2; on Dipeptidyl peptidase 8) was > 100 µM each time.

The compound `CC[C@@H](C)[C@H](N)C(=O)N1Cc2conc2C1` came in with a 50% inhibitory concentration (IC50) in experiment [1] of 42 µM.

On to `N[C@@H](CC(=O)N1CCN(C(c2ccc(F)cc2)c2ccc(F)cc2)CC1)C(=O)N1Cc2cn[nH]c2C1`, for which the figures for the IC50 (in experiment [1]; at Dipeptidyl peptidase 2; against Dipeptidyl peptidase 8) were > 25 µM, > 100 µM and > 100 µM, respectively.

In the case of `CC[C@@H](C)[C@H](N)C(=O)N1Cc2ccccc2C1`, the IC50 at Prolyl endopeptidase FAP was > 100 µM.

As for `CC[C@@H](C)[C@H](N)C(=O)N1C[C@@H](N=[N+]=[N-])C[C@H]1C#N`, the IC50 at Prolyl endopeptidase FAP was > 100 µM.

By IC50 is commonly meant the concentration that inhibits the measured activity by half. A low value points to greater potency.
